Patent publication US6488924B1, “Vitamin K adduct, particularly suitable as vitamin supplement for feeds” (Luigi Stoppani S.p.A., priority 1999, dated 2002)

How the values were obtained:
[1] = Stability in extruded feed (fish farm feed); assay type: physicochemical; conditions: for menadione in feed, sampling point End point: after extrusion, drying and addition of fat; for menadione in feed, sampling point Mixer: after mixing, before extrusion
Protocol: Two preparations of vitamin supplement of approximately 2500 kg of feed were prepared for each vitamin K source. The vitamin K supplements were mixed in with the feed in an industrial mixer, extruded in a continuous extruder with the addition of live steam, dried and added with fat.

[2] = Characteristic parameters and comparative tests adduct vs MSB: solubility; assay type: physicochemical; conditions: at 25° C.
[3] = pH of the medium; cited from earlier work
[4] = Release of menadione in aqueous medium; assay type: physicochemical; conditions: demineralized water, municipal drinking water, seawater
Protocol: The menadione release capacity of the adduct according to the invention and of MSB in three different types of water (demineralized water, municipal drinking water, and seawater) is evaluated.
The following table lists the milligrams/liter of menadione found in the solution with respect to the total menadione of the polymeric adduct added as a suspension equal to 1 g/l ([…] menadione on 1 g of dry adduct): […]

[5] = Stability under pressure (press on disk of finely ground powder); assay type: physicochemical; conditions: 30 minutes
[6] = Thermal stability in controlled humidity (dispersed in aluminum silicate); assay type: physicochemical
Protocol: A method described in the literature is used to compare the stability of Kavist with respect to MSB. According to this method, the products, as accurately dispersed in aluminum silicate (K.F. humidity around 11%) at the level of 1.5% by weight, are kept at 55° C. for 3 days in order to evaluate their menadione content before and after the treatment. The menadione titers of the adduct according to the invention and the percentage of menadione left unchanged before and after the treatment are listed hereafter.

[7] = Solubility in water (saturated solution in demineralized water); assay type: physicochemical; conditions: ambient temperature, saturated solution in presence of a precipitate
[8] = Thermal stability in air-circulation stove; assay type: physicochemical; conditions: absence of humidity

Row | menadione in feed, sampling point End point ([1]; 1st preparation) [mg/kg] | menadione in feed, sampling point Mixer ([1]; 1st preparation) [mg/kg] | menadione in feed, sampling point End point ([1]; 2nd preparation) [mg/kg] | menadione in feed, sampling point Mixer ([1]; 2nd preparation) [mg/kg] | water solubility [2] [g/100 ml at 25 °C] | menadione release in water (in words) [4] | percentage of menadione left unchanged ([5]; 1 atm, 25° C.) [%] | percentage of menadione left unchanged ([5]; 1 atm, 120° C.) [%] | percentage of menadione left unchanged ([5]; 25 atm, 25° C.) [%] | percentage of menadione left unchanged ([5]; 25 atm, 120° C.) [%] | percentage of menadione left unchanged ([5]; 5000 atm, 25° C.) [%] | percentage of menadione left unchanged ([5]; 5000 atm, 120° C.) [%] | Final menadione/initial menadione ([6]; 55° C. for 3 days in aluminum silicate (humidity around 11%)) [%] | Final menadione content ([6]; after 55° C. for 3 days in aluminum silicate (humidity around 11%)) [%] | Initial menadione content ([6]; before treatment, dispersed in aluminum silicate (humidity around 11%) at 1.5% by weight) [%] | Menadione concentration mg/l saturated solution [7] | Men found/initial Men ([8]; 120° for 24 hours) [%] | Color ([8]; after 120° for 24 hours) | SMILES | pH at which isomerization into poorly effective product becomes complete [3]
1 | 22.7 | 86.1 | 18.1 | 86.3 | – | – | – | – | – | – | – | – | – | – | – | – | – | – | CC1(S(=O)(=O)O)CC(=O)c2ccccc2C1=O.NC(=O)c1cccnc1 (centres unmarked) [MNB, menadione nicotinamide bisulfite] | –
2 | 21.0 | 90.9 | 16.1 | 87.6 | 50 | substantially instantaneous release | 100 | 20 | 100 | 15 | 80 | 10 | 15.5 | 0.24 | 1.52 | Higher than 20 × 10^4 mg mg/l | 0 | Purple | CC1(S(=O)(=O)[O-])CC(=O)c2ccccc2C1=O.[Na+] (centres unmarked) [MSB, menadione sodium bisulfite] | approximately 8.5
